Measurements taken from PMC12396409, “Screening and hit evaluation of a microbial metabolite library against the pathogenic Plasmodium falciparum and Toxoplasma gondii parasites” (International Journal for Parasitology: Drugs and Drug …, 2025).
Like-named read-outs stand apart in the source and are kept apart here. Where a SMILES comes first, the peptide text is derived from it. Bridges are numbered along the chain shown (N, C = ends). [ ]: non-standard residue; d: D form. The star is where a group is joined. Octatrienoyl(2E,4E,6E) = C/C=C/C=C/C=C/C(=O)*; NMeA = CN[C@@H](C)C(=O)O

Columns and labels:
[1] = tested on: T. gondii RH strain (RH-Tub-eYFP) tachyzoites; test: microbe, parasite or virus in culture; format: cell-based, Toxoplasma gondii; settings: 72 h; for percent parasite growth at 2 µg/mL: Toxoplasma gondii
[2] = tested on: P. falciparum 3D7 parasites; test: P. falciparum growth inhibition assay, 2-cycle (120 h treatment), delayed-death screen and dose-response; format: cell-based, Plasmodium falciparum; settings: for activity at 2 µg/mL: Plasmodium falciparum
[3] = tested on: P. falciparum 3D7 parasites; test: P. falciparum growth inhibition assay, 1-cycle (72 h treatment), SYBR DNA staining (library screen at 2 μg/mL and dose-response); format: cell-based, Plasmodium falciparum; settings: 72 h; for activity at 2 µg/mL: Plasmodium falciparum
[4] = T. gondii, parasite screen 2 μg/mL, % growth, replicate 1
[5] = T. gondii, parasite screen 2 μg/mL, % growth, replicate 2
[6] = P. falciparum, 120 h, parasite screen 2 μg/mL, % growth, replicate 1
[7] = P. falciparum, 120 h, parasite screen 2 μg/mL, % growth, replicate 2
[8] = P. falciparum, parasite screen 2 μg/mL, % growth, replicate 1
[9] = P. falciparum, parasite screen 2 μg/mL, % growth, replicate 2
[10] = T. gondii, screen at 2 μg/mL, replicate 1, read-out: Tg_72h_%Growth_Rep1
[11] = T. gondii, screen at 2 μg/mL, replicate 2, read-out: Tg_72h_%Growth_Rep2
[12] = library screen at 2 μg/mL, % growth, replicate 1
[13] = library screen at 2 μg/mL, % growth, replicate 2
[14] = library screen at 2 μg/mL, 120 h, % growth, replicate 1
[15] = library screen at 2 μg/mL, 120 h, % growth, replicate 2

## Cc1cc(O)c2c(c1)C(=O)C13C(=C2O)C(=O)C2C(O)C1C1C(O)C3C(=O)C3=C(O)c4c(O)cc(C)cc4C(=O)C321 (stereo not drawn) [Rugulosin - form]
[1]; [4]
  Tg_72h_%Growth_Rep1: 9.47%
[1]; [5]
  Tg_72h_%Growth_Rep2: 14.48%
[2]; [6]
  Pf_120h_%Growth_Rep1: 0.79%
[2]; [7]
  Pf_120h_%Growth_Rep2: 8.22%
[3]; [8]
  Pf_72h_%Growth_Rep1: 4.91%
[3]; [9]
  Pf_72h_%Growth_Rep2: 2.27%

## CC[C@@H](C(=O)[C@@H](C)[C@@H](O)[C@H](C)[C@@H]1O[C@@H]([C@@H](CC)C(=O)O)CC[C@@H]1C)[C@H]1O[C@]2(C=C[C@@H](O)[C@]3(CC[C@@](C)([C@H]4CC[C@](O)(CC)[C@H](C)O4)O3)O2)[C@H](C)C[C@@H]1C [Salinomycin sodium]
[1]; [4]
  Tg_72h_%Growth_Rep1: 1.25%
[1]; [5]
  Tg_72h_%Growth_Rep2: 0.43%
[2]; [6]
  Pf_120h_%Growth_Rep1: 8.77%
[2]; [7]
  Pf_120h_%Growth_Rep2: -2.16%
[3]; [8]
  Pf_72h_%Growth_Rep1: 3.74%
[3]; [9]
  Pf_72h_%Growth_Rep2: -3.65%

## CC(=O)OCC1=C[C@@H]2OC(=O)C3=CO[C@@H](O[C@@H]4O[C@H](CO)[C@@H](O)[C@H](O)[C@H]4O)[C@H]1[C@@H]32 [Asperuloside]
[1]; library screen at 2 μg/mL, % growth, replicate 1, read-out: Tg_72h_%Growth_Rep1
  percent parasite growth at 2 µg/mL: 123%
[1]; library screen at 2 μg/mL, % growth, replicate 2, read-out: Tg_72h_%Growth_Rep2
  percent parasite growth at 2 µg/mL: 97.1%
[2]; 3D7, library screen at 2 μg/mL, 120 h, % growth, replicate 1, read-out: Pf_120h_%Growth_Rep1
  activity at 2 µg/mL: 94.8%
[2]; 3D7, library screen at 2 μg/mL, 120 h, % growth, replicate 2, read-out: Pf_120h_%Growth_Rep2
  activity at 2 µg/mL: 94.6%
[3]; 3D7, library screen at 2 μg/mL, % growth, replicate 1, read-out: Pf_72h_%Growth_Rep1
  activity at 2 µg/mL: 86.2%
[3]; 3D7, library screen at 2 μg/mL, % growth, replicate 2, read-out: Pf_72h_%Growth_Rep2
  activity at 2 µg/mL: 89.3%

## C[C@H]1CCC/C=C/[C@@H]2C[C@H](O)C[C@H]2[C@H](O)/C=C/C(=O)O1 [Brefeldin A]
[1]; [10]
  percent parasite growth at 2 µg/mL: -1.55%
[1]; [11]
  percent parasite growth at 2 µg/mL: 0.61%
[2]; 3D7, 120 h, P. falciparum, 120 h, screen at 2 μg/mL, replicate 1, read-out: Pf_120h_%Growth_Rep1
  activity at 2 µg/mL: 5.53%
[2]; 3D7, 120 h, P. falciparum, 120 h, screen at 2 μg/mL, replicate 2, read-out: Pf_120h_%Growth_Rep2
  activity at 2 µg/mL: 2.87%
[3]; 3D7, 72 h, P. falciparum, screen at 2 μg/mL, replicate 1, read-out: Pf_72h_%Growth_Rep1
  activity at 2 µg/mL: 4.33%
[3]; 3D7, 72 h, P. falciparum, screen at 2 μg/mL, replicate 2, read-out: Pf_72h_%Growth_Rep2
  activity at 2 µg/mL: -0.69%

## CC[C@H](C)[C@H]1O[C@]2(C=C[C@@H]1C)C[C@@H]1C[C@@H](C/C=C(\C)[C@@H](O[C@H]3C[C@H](OC)[C@@H](O[C@H]4C[C@H](OC)[C@H](NC(C)=O)[C@H](C)O4)[C@H](C)O3)[C@@H](C)/C=C/C=C3\CO[C@@H]4[C@H](O)C(C)=C[C@@H](C(=O)O1)[C@]34O)O2 [Eprinomectin B1a, reference compound]
[1]; [12]
  Tg_72h_%Growth_Rep1: 139.55%
[1]; [13]
  Tg_72h_%Growth_Rep2: 101.56%
[2]
  3) Fold change (72 h/120 h): 2.2
[2]; P. falciparum, 2 μg/mL, 120 h
  2) Growth (%) at 120 h: 19.45%
[2]; [14]
  Pf_120h_%Growth_Rep1: 26.03%
[2]; [15]
  Pf_120h_%Growth_Rep2: 12.86%
[3]; P. falciparum, 2 μg/mL
  1) Growth (%) at 72 h: 42.60%
[3]; [12]
  Pf_72h_%Growth_Rep1: 53.90%
[3]; [13]
  Pf_72h_%Growth_Rep2: 31.29%

## COc1c(OC/C=C(\C)CCC=C(C)C)ccc2ccc(=O)oc12 [Collinin]
[1]; [10]
  percent parasite growth at 2 µg/mL: 77.5%
[1]; [11]
  percent parasite growth at 2 µg/mL: 110%
[2]; 3D7, P. falciparum, 120 h, screen at 2 μg/mL, replicate 1, read-out: Pf_120h_%Growth_Rep1
  activity at 2 µg/mL: 60.9%
[2]; 3D7, P. falciparum, 120 h, screen at 2 μg/mL, replicate 2, read-out: Pf_120h_%Growth_Rep2
  activity at 2 µg/mL: 78%
[3]; 3D7, P. falciparum, screen at 2 μg/mL, replicate 1, read-out: Pf_72h_%Growth_Rep1
  activity at 2 µg/mL: 69.5%
[3]; 3D7, P. falciparum, screen at 2 μg/mL, replicate 2, read-out: Pf_72h_%Growth_Rep2
  activity at 2 µg/mL: 86.1%

## C/C=C/C=C/C=C/C(=O)N[C@@H](Cc1ccccc1)C(=O)N[C@H]1COC(=O)[C@@H]2CCCN2C(=O)[C@H](C)NC(=O)[C@H](C)N(C)C(=O)[C@@H]2CCCN2C1=O [A 54556B] ({Octatrienoyl(2E,4E,6E)}-FSP[NMeA]AP; ester 2-C)
[1]; [12]
  Tg_72h_%Growth_Rep1: 115.90%
[1]; [13]
  Tg_72h_%Growth_Rep2: 86.45%
[2]; [14]
  Pf_120h_%Growth_Rep1: 65.42%
[2]; [15]
  Pf_120h_%Growth_Rep2: 57.54%
[3]; [12]
  Pf_72h_%Growth_Rep1: 78.68%
[3]; [13]
  Pf_72h_%Growth_Rep2: 74.34%
